According to patent publication US8999942B2, “Polyol modified aminoglycoside-lipid conjugates” (University of Manitoba, priority 2010, dated 2015):

What was measured:
[1] = system: S. pneumoniae ATCC 13883; assay: MIC, broth macrodilution (CLSI), S. pneumoniae ATCC 13883; format: cell-based
Protocol: (§1) All compounds were tested against American Type Culture Collection (ATCC) reference strains as well as clinical isolates from the Canadian Intensive Care Unit (CAN-ICU) study (Zhanel, et al., 2008). […] Antibacterial activity against Gram-positive and Gram-negative microorganisms was performed via broth macrodilution tests using CLSI methodology (Clinical and Laboratory Standards Institute, 2006). The minimum inhibitory concentration (MIC) in μg/mL of the aminoglycoside-derived amphiphilic polycarbamates and polyethers were determined using established methods (Clinical and Laboratory Standards Institute, 2006) and are shown in Tables 1 and 2, respectively.

[2] = system: Stenotrophomonas maltophilia (CAN-ICU 62585); assay: MIC, broth macrodilution (CLSI), S. maltophilia; format: cell-based; details: for Minimal Inhibitory Concentration (MIC): S. maltophilia, footnote CAN-ICU 62584
Protocol: as §1

[3] = system: E. coli ATCC 25922; assay: MIC, broth macrodilution (CLSI), E. coli ATCC 25922; format: cell-based
Protocol: as §1

[4] = system: Gram-positive and Gram-negative strains tested; assay: Antibacterial activity, strains tested; format: cell-based
Protocol: as §1

[5] = system: P. aeruginosa (Gent-R) CAN-ICU 62308; assay: MIC, broth macrodilution (CLSI), P. aeruginosa CAN-ICU 62308; format: cell-based, Pseudomonas aeruginosa
Protocol: as §1

[6] = system: Pseudomonas aeruginosa ATCC 27853; assay: MIC, broth macrodilution (CLSI), P. aeruginosa ATCC 27853; format: cell-based
Protocol: as §1

[7] = system: methicillin-resistant Staphylococcus aureus (MRSA) ATCC 33592; assay: MIC, broth macrodilution (CLSI), MRSA ATCC 33592; format: cell-based; details: for Minimal Inhibitory Concentration (MIC): MRSA, methicillin-resistant S. aureus ATCC 33592
Protocol: as §1

[8] = system: E. coli (Gentamicin-resistant) CAN-ICU 61714; assay: MIC, broth macrodilution (CLSI), gentamicin-resistant E. coli; format: cell-based; details: footnote ATCC 6174 (gentamicin resistant)
Protocol: as §1

[9] = system: S. aureus ATCC 29213; assay: MIC, broth macrodilution (CLSI), S. aureus ATCC 29213; format: cell-based, Staphylococcus aureus
Protocol: as §1

[10] = system: S. epidermidis ATCC 14990; assay: MIC, broth macrodilution (CLSI), S. epidermidis; format: cell-based, Staphylococcus epidermidis; details: footnote ATCC 1490
Protocol: as §1

[11] = system: Streptococcus pneumoniae ATCC 49619; assay: MIC, broth macrodilution (CLSI), S. pneumoniae ATCC 49619; format: cell-based
Protocol: as §1

[12] = system: Acinetobacter baumanni (CAN-ICU 63169); assay: MIC, broth macrodilution (CLSI), A. baumannii; format: cell-based; details: A. baumannii CAN-ICU 63169
Protocol: as §1

[13] = system: E. coli (Amikacin MIC 32) CAN-ICU 63074; assay: MIC, broth macrodilution (CLSI), E. coli CAN-ICU 63074; format: cell-based
Protocol: as §1

[14] = system: methicillin-resistant Staphylococcus epidermidis (MRSE) CAN-ICU 61589; assay: MIC, broth macrodilution (CLSI), MRSE; format: cell-based; details: methicillin-resistant S. epidermidis, footnote (ATCC 14990)
Protocol: as §1

[15] = system: P. aeruginosa (two strains); assay: MIC, P. aeruginosa two strains; format: cell-based, Pseudomonas aeruginosa
Protocol: as §1

[16] = system: S. aureus, MRSA, S. epidermidis and MRSE; assay: MIC, S. aureus, MRSA, S. epidermidis and MRSE; format: cell-based, Staphylococcus aureus, Staphylococcus epidermidis
Protocol: as §1

[17] = system: Gram-negative strains; assay: Gram-negative antibacterial activity; format: cell-based; details: Gram-negatives E. coli and S. maltophilia
Protocol: as §1

[18] = system: three strains of E. coli; assay: MIC, three strains of E. coli; format: cell-based
Protocol: as §1

SMILES | Minimal Inhibitory Concentration (MIC) [1] [µg/mL] | Minimal Inhibitory Concentration (MIC) [2] [µg/mL] | Minimal Inhibitory Concentration (MIC) [3] [µg/mL] | antibacterial activity (in words) [4] | Minimal Inhibitory Concentration (MIC) [5] [µg/mL] | Minimal Inhibitory Concentration (MIC) [6] [µg/mL] | Minimal Inhibitory Concentration (MIC) [7] [µg/mL] | Minimal Inhibitory Concentration (MIC) [8] [µg/mL] | Minimal Inhibitory Concentration (MIC) [9] [µg/mL] | Minimal Inhibitory Concentration (MIC) [10] [µg/mL] | Minimal Inhibitory Concentration (MIC) [11] [µg/mL] | Minimal Inhibitory Concentration (MIC) [12] [µg/mL] | Minimal Inhibitory Concentration (MIC) [13] [µg/mL] | Minimal Inhibitory Concentration (MIC) [14] [µg/mL] | other results
COCC1OC(OC2C(NC(=O)C(CCN)OC)CC(N)C(OC3OC(CN)C(OC)C(OC)C3OC)C2OC)C(OC)C(N)C1OC.O=C(O)C(F)(F)F.O=C(O)C(F)(F)F.O=C(O)C(F)(F)F.O=C(O)C(F)(F)F (centres unmarked) [Compound 20] | >256 | >256 | >256 | inactivity | >256 | >256 | >256 | >256 | >256 | >256 | >256 | >256 | >256 | >256 | 
COCC1OC(OC2C(OC)C(N)CC(N)C2OC2OC(CN)C(OC)C(OC)C2N)C(OC)C1OC1OC(CN)C(OC)C(OC)C1N.O=C(O)C(F)(F)F.O=C(O)C(F)(F)F.O=C(O)C(F)(F)F.O=C(O)C(F)(F)F.O=C(O)C(F)(F)F.O=C(O)C(F)(F)F (centres unmarked) [Compound 14] | >256 | >256 | >256 | inactivity | >256 | >256 | >256 | >256 | >256 | 256 | >256 | >256 | >256 | >256 | 
NCC1OC(OC2C(N)CC(N)C(OCc3ccccc3)C2OC2OC(COCc3ccccc3)C(OC3OC(CN)C(OCc4ccccc4)C(OCc4ccccc4)C3N)C2OCc2ccccc2)C(N)C(OCc2ccccc2)C1OCc1ccccc1.O=C(O)C(F)(F)F.O=C(O)C(F)(F)F.O=C(O)C(F)(F)F.O=C(O)C(F)(F)F.O=C(O)C(F)(F)F.O=C(O)C(F)(F)F (centres unmarked) [Compound 11] | 8 | 8 | 8 |  | 64 | 32 | 4 | 16 | 4 | 2 | 16 | 16 | 4 | 2 | MIC [15]: 32 to 64 µg/mL; fold decrease in activity compared to polycarbamate analog 1 ([2]; against S. maltophilia): 2 fold; MIC [16]: 2 to 4 µg/mL
CCCCCCNC(=O)OCC1OC(OC2C(NC(=O)C(CCN)OC(=O)NCCCCCC)CC(N)C(OC3OC(CN)C(OC(=O)NCCCCCC)C(OC(=O)NCCCCCC)C3OC(=O)NCCCCCC)C2OC(=O)NCCCCCC)C(OC(=O)NCCCCCC)C(N)C1OC(=O)NCCCCCC.O=C(O)C(F)(F)F.O=C(O)C(F)(F)F.O=C(O)C(F)(F)F.O=C(O)C(F)(F)F (centres unmarked) [Compound 9] | >128 | 16 | 4 |  | 16 | 64 | 4 | 8 | 4 | 4 | 32 | >128 | 4 | 4 | fold improvement compared to 6 [17]: 8-32 fold
NCC1OC(OC2C(N)CC(N)C(OC(=O)Nc3ccccc3)C2OC2OC(COC(=O)Nc3ccccc3)C(OC3OC(CN)C(OC(=O)Nc4ccccc4)C(OC(=O)Nc4ccccc4)C3N)C2OC(=O)Nc2ccccc2)C(N)C(OC(=O)Nc2ccccc2)C1OC(=O)Nc1ccccc1.O=C(O)C(F)(F)F.O=C(O)C(F)(F)F.O=C(O)C(F)(F)F.O=C(O)C(F)(F)F.O=C(O)C(F)(F)F.O=C(O)C(F)(F)F (centres unmarked) [Compound 1] | 256 | 4 | 32 |  | 128 | 256 | 1 | 16 | 1 | 0.5 | 16 | 32 | 16 | 0.5 | MIC fold lower compared to amphiphilic di- and tetracationic lipopeptides (Serrano et al., 2009) ([2]; against S. maltophilia): 32-64 fold; fold increased susceptibility over Neomycin B ([2]; against multidrug-resistant S. maltophilia): over 128 fold; MIC fold reduced compared to Neomycin B sulfate ([18]; Neomycin B susceptible E. coli): 2-8 fold; MIC ([18]; three strains of E. coli): 16 to 32 µg/mL; fold enhancement compared to unmodified Neomycin B ([7]; against MRSA): 256 fold; MIC [16]: ≤ 1 µg/mL
CCCCCCNC(=O)OCC1OC(OC2C(OC(=O)NCCCCCC)C(N)CC(N)C2OC2OC(CN)C(OC(=O)NCCCCCC)C(OC(=O)NCCCCCC)C2N)C(OC(=O)NCCCCCC)C1OC1OC(CN)C(OC(=O)NCCCCCC)C(OC(=O)NCCCCCC)C1N.O=C(O)C(F)(F)F.O=C(O)C(F)(F)F.O=C(O)C(F)(F)F.O=C(O)C(F)(F)F.O=C(O)C(F)(F)F.O=C(O)C(F)(F)F (centres unmarked) [Compound 3] | 4 | >256 | 8 |  | 256 | >256 | 256 | 8 | 2 | 1 | 8 | >256 | 32 | 2 | 
COCC1OC(OC2C(N)CC(N)C(OC3OC(CN)C(OC)C(OC)C3OC)C2OC)C(OC)C(N)C1OC.O=C(O)C(F)(F)F.O=C(O)C(F)(F)F.O=C(O)C(F)(F)F.O=C(O)C(F)(F)F (centres unmarked) [Compound 17] | >256 | >256 | >256 | inactivity | >256 | >256 | >256 | >256 | >256 | 256 | >256 | >256 | >256 | >256 | 
